Measurements reported in patent US9481648B2, “Kinase inhibitors” (Respivert Limited, priority 2013, dated 2016).
Read-outs that look alike come from different tables or passages of the source.

What was measured:
[1] = molecular target: Syk (Homo sapiens (Human), UniProt P43405); assay: Syk enzyme inhibition (FRET, Z-LYTE); type: biochemical
How it was run: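 Syk or c-Src enzyme (3000 or 2000 ng/mL solutions) was preincubated 2 h at RT with compound solutions at 1, 0.1, 0.01 or 0.001 µg/mL. Z-LYTE FRET peptide (8 µM solution) and ATP (800 µM solution for c-Src, 60 µM for Syk) were then added for 1 h, followed by protease development for 1 h. Phosphorylation was read as the coumarin/fluorescein emission ratio.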

[2] = tested on: non-mutant kinases; type: binding; conditions: for KinomeScan Selectivity Score S(10): (number of non-mutant kinases with % Ctrl <10)/(number of non-mutant kinases tested); for KinomeScan Selectivity Score S(35): (number of non-mutant kinases with % Ctrl <35)/(number of non-mutant kinases tested); for number of individual kinase hits, S(1): non-mutant kinases with % Ctrl <1; for number of individual kinase hits, S(10): non-mutant kinases with % Ctrl <10; for number of individual kinase hits, S(35): non-mutant kinases with % Ctrl <35; for KinomeScan Selectivity Score S(1): (number of non-mutant kinases with % Ctrl <1)/(number of non-mutant kinases tested); for selectivity compared to the Reference Compound: as evidenced by lower selectivity scores
Protocol: These assays may be conducted by DiscoverX (formerly Ambit; San Diego, Calif.). The percentage inhibition produced by incubation with a test compound may be calculated relative to the non-inhibited control.

[3] = molecular target: GSK 3α (Homo sapiens (Human), UniProt P49840); assay: GSK 3α enzyme inhibition (FRET, Z-LYTE; Method 2); type: biochemical; conditions: read-out: IC50 Values for Enzyme Inhibition GSK3α
How it was run: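 Z-LYTE FRET assay: GSK3-α (500 ng/mL stock) preincubated 105 min at RT with compound at 10, 1, 0.1 or 0.01 μg/mL stock. FRET peptide (8 μM stock) and ATP (40 μM stock) were then added for 1 h, followed by protease development for 1 h. Phosphorylation was read as coumarin/fluorescein emission ratio.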

[4] = Plasma pharmacokinetics in rats, single intravenous or oral administration; type: in vivo, rat (male Wistar); conditions: for C0: intravenous 0.25 mg/kg in 5% DMSO-7.5% Solutol HS15-87.5% normal saline; for Vd: read-out: Vss; for Fpo: oral 5 mg/kg, vehicle C (Example 4) or B
Protocol: Studies were conducted by Sai Life Sciences (Hinjewadi, Pune, India) to investigate the plasma pharmacokinetics and total colon tissue distribution of compounds of the invention. In particular, pharmacokinetic studies were carried out in: • male C57BL/6 mice, following a single oral administration; and • male Wistar rats following a single intravenous or oral administration.

[5] = molecular target: CYP3A4 (Homo sapiens (Human), UniProt P08684); assay: CYP3A4 inhibition study; type: in vitro ADME; conditions: for inhibition at 15 µM / inhibition at 5 μM: human; for inhibition at 15 µM: read-out: 15 μM % Inh; for inhibition at 5 μM: read-out: % Inh (inhibition at 5 μM reported instead)
Protocol: (§1) Assessment of certain in vitro ADME (absorption, distribution, metabolism, and excretion) parameters for certain compounds of the invention was conducted by BioFocus (Saffron Walden, UK).

[6] = Human hepatocyte stability test; type: in vitro ADME; conditions: human hepatocytes; for hepatocyte CLint: read-out: Mean intrinsic clearance
Protocol: as §1

[7] = tested on: endotoxin (LPS)-induced uveitis in Lewis rats; assay: Endotoxin-induced uveitis in rats (in vivo vi); design: species or system rat; conditions: for IL-1β Anterior / IL-1β Posterior / IL-6 Anterior / IL-6 Posterior / MCP-1 Anterior / MCP-1 Posterior: eyes of LPS-stimulated rats, 1 mg/mL; for cytokine levels in both the anterior and posterior segments of the eyes: rats treated with intravitreal endotoxin LPS, topical dosing
Protocol: Male, Lewis rats (6-8 weeks old, Charles River UK Limited) are housed in cages of 3 at 19-21° C. with a 12 h light/dark cycle (07:00/19:00) and fed a standard diet of rodent chow and water ad libitum. Non-fasted rats are weighed, individually identified on the tail with a permanent marker, and receive a single intravitreal administration into the right vitreous humor (5 μL dose volume) of 100 ng/animal of LPS (Escherichia coli 0111:B4 prepared in PBS, Sigma Aldrich, UK) using a 32-gauge needle. Untreated rats are injected with PBS. […] Following euthanasia, the right eye of each animal is enucleated and dissected into front (anterior) and back (posterior) sections around the lens. Each section is weighed and homogenised in 500 μL of sterile phosphate buffered saline followed by 20 minutes centrifugation at 12000 rpm at 4° C.

[8] = molecular target: CYP2C9 (Homo sapiens (Human), UniProt P11712); assay: CYP2C9 inhibition study; type: in vitro ADME; conditions: for inhibition at 15 µM: human, read-out: 15 μM % Inh
Protocol: as §1

[9] = tested on: Salmonella typhimurium strain TA98; assay: Mutagenicity assessment (bacterial reverse mutation screen); type: cell-based; conditions: strain TA98, presence or absence of S-9 mix, up to 1000 μg/plate analysable
Protocol: Studies were conducted by Sequani (Ledbury, Herefordshire, UK) to assess compounds of the invention for their ability to induce mutations in two histidine dependent auxotrophic mutants of Salmonella typhimurium, strains TA98 and TA100 in vitro.
The mutation screen was conducted using the plate incorporation method and was performed in both the presence and absence of S-9 mix (a liver post-mitochondrial fraction derived from the livers of Aroclor 1254 treated rats). The bacteria were exposed to test compounds dissolved in dimethylsulphoxide, which solvent was also used as the negative control. The dose levels used were 0.32, 1.6, 8, 40, 200, 1000 or 5000 μg/plate.
Precipitation was also noted in both strains at 1000 μg/plate in the presence and absence of S-9 mix.

[10] = male, Wistar, rat, plasma, rats, intravenous 0.25 mg/kg
[11] = male, Wistar, rat, plasma, rats
[12] = male, Wistar, rat, plasma, po, 5 mg/kg

GSK 3α, sequence (P49840 whole entry): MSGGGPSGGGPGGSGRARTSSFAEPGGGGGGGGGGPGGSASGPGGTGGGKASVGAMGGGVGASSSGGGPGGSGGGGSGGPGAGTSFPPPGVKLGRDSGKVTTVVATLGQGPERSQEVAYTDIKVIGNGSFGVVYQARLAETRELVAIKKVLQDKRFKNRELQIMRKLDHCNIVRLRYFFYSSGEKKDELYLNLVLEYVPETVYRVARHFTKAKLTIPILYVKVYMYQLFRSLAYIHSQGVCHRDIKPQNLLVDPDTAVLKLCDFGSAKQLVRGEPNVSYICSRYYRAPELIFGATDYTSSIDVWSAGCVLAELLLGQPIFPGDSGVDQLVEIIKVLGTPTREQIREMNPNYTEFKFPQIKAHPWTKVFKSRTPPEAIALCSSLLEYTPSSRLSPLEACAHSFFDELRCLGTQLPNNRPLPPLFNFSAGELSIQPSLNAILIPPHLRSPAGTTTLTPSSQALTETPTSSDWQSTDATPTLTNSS
CYP2C9, sequence (P11712 whole entry): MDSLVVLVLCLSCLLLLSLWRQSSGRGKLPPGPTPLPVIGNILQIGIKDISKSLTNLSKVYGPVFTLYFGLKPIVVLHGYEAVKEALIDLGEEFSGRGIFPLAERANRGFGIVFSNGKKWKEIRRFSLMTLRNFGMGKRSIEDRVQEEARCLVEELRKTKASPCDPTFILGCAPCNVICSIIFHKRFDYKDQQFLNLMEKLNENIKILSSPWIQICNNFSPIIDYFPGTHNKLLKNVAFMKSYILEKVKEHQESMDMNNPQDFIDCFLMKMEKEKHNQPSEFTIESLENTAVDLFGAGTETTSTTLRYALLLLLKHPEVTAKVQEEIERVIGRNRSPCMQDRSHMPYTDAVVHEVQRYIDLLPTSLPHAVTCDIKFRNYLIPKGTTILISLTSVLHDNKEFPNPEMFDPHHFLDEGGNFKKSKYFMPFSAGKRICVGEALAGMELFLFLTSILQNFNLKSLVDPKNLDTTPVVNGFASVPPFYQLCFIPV
CYP3A4, sequence (P08684 whole entry): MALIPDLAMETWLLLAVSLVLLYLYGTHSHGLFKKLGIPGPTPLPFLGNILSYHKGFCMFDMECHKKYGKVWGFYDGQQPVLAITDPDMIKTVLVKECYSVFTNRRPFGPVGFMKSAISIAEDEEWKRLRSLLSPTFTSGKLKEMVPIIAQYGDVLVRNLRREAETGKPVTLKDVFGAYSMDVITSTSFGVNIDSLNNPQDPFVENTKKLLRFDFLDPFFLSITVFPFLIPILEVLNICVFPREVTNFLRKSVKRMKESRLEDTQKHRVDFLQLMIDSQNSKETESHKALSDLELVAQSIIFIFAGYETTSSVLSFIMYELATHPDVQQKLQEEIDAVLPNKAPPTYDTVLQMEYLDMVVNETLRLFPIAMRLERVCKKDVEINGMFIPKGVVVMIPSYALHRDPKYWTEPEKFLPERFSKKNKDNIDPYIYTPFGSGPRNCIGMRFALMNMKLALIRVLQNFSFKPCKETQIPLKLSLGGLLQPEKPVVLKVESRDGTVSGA

Row | SMILES | IC50 [1] | KinomeScan Selectivity Score S(10) ([2]; 50 nM) | KinomeScan Selectivity Score S(35) ([2]; 50 nM) | number of individual kinase hits, S(1) ([2]; 50 nM) | number of individual kinase hits, S(10) ([2]; 50 nM) | number of individual kinase hits, S(35) ([2]; 50 nM) | KinomeScan Selectivity Score S(1) ([2]; 500 nM) | IC50 [3] | AUC(0-inf) [4, 10] | AUC(0-t) [4, 10] | half-life [4, 10] | C0 [4, 11] | Vd [4, 10] | CI ([4]; rats, intravenous 0.25 mg/kg) | Fpo ([4]; rats) | IC50 ([5]; CYP3A4, 0 min preincubation) | IC50 ([5]; CYP3A4, 30 min preincubation) | half-life [6] | hepatocyte CLint [6] | increases in revertant colonies [9] | further results
1 | COCCOCCOCCNC(=O)c1cc(Nc2cc(Oc3ccc(NC(=O)Nc4cc(C(C)(C)C)cc(NS(C)(=O)=O)c4OC)c4ccccc34)ccn2)cc(OC)c1 [Example 3, 3-((4-((4-(3-(5-(tert-Butyl)-2-methoxy-3-(methylsulfonamido)phenyl)ureido)naphthalen-1-yl)oxy)pyridin-2-yl)amino)-5-methoxy-N-(2-(2-(2-methoxyethoxy)ethoxy)ethyl)benzamide] | 0.692 µM | 0.023 | 0.091 | 0 | 9 | 36 | 0.046 | 4.32 µM | 0.821 µg·h/mL | 0.82 µg·h/mL | 12 min | 4.38 µg/mL | 0.1 L/kg | 0.306 L/h/kg | 0.0% | > 15 µM | > 15 µM | 36 min | 39 µL/min/1e6 cells | – | KinomeScan Selectivity Score S(10) ([2]; 500 nM): 0.149; KinomeScan Selectivity Score S(35) ([2]; 500 nM): 0.235; number of individual kinase hits, S(1) ([2]; 500 nM): 18; number of individual kinase hits, S(10) ([2]; 500 nM): 59; number of individual kinase hits, S(35) ([2]; 500 nM): 93; selectivity compared to the Reference Compound [2]: substantially improved selectivities; inhibition at 15 µM ([5]; CYP3A4, 0 min preincubation): 22%; inhibition at 15 µM ([5]; CYP3A4, 30 min preincubation): 51%
2 | COCCOCCOCCOc1cc(Nc2nccc(Oc3ccc(NC(=O)Nc4cc(C(C)(C)C)cc(NS(C)(=O)=O)c4OC)c4ccccc34)n2)cc(OC)c1 [Example 4, N-(5-(tert-Butyl)-2-methoxy-3-(3-(4-((2-((3-methoxy-5-(2-(2-(2-methoxyethoxy)ethoxy)-ethoxy)phenyl)amino)pyrimidin-4-yl)oxy)naphthalen-1-yl)ureido)phenyl)methanesulfonamide] | 0.086 µM | – | – | – | – | – | – | 2.66 µM | 0.563 µg·h/mL | 0.558 µg·h/mL | 48 min | 3.04 µg/mL | 0.2 L/kg | 0.474 L/h/kg | 0.2% | > 5 µM | 2.7 µM | 48 min | 29 µL/min/1e6 cells | no dose-related or statistically significant increases | IL-1β Anterior ([7]; Table 7a): 20.3 ± 18.9 pg/mL; IL-1β Posterior ([7]; Table 7a): 7.6 ± 7.6 pg/mL; IL-6 Anterior ([7]; Table 7a): 642.3 ± 48.9 pg/mL; IL-6 Posterior ([7]; Table 7a): 897.9 ± 120.3 pg/mL; MCP-1 Anterior ([7]; Table 7a): 0 ± 0 pg/mL; MCP-1 Posterior ([7]; Table 7a): 1.0 ± 1.0 pg/mL; cytokine levels in both the anterior and posterior segments of the eyes [7]: significantly reduced; IC50 ([8]; CYP2C9, 0 min preincubation): > 15 µM; IC50 ([8]; CYP2C9, 30 min preincubation): > 15 µM; inhibition at 15 µM ([8]; CYP2C9, 0 min preincubation): 24%; inhibition at 15 µM ([8]; CYP2C9, 30 min preincubation): 41%; AUC(0-inf) [4, 12]: 0.0408 µg·h/mL; AUC(0-t) [4, 12]: 0.027 µg·h/mL; Cmax [4, 12]: 0.0155 µg/mL; Tmax [4, 12]: 30 min; inhibition at 5 μM ([5]; CYP3A4, 0 min preincubation): 9%; inhibition at 5 μM ([5]; CYP3A4, 30 min preincubation): 58%
3 | C#Cc1cc(Nc2nccc(Oc3ccc(NC(=O)Nc4cc(C(C)(C)C)cc(NS(C)(=O)=O)c4OC)c4ccccc34)n2)cc(C(=O)NCCOCCOCCOC)c1 [Example 16] | – | 0.023 | 0.068 | 0 | 9 | 27 | 0.038 | – | – | – | – | – | – | – | 0.0% | – | – | – | – | no dose-related or statistically significant increases | KinomeScan Selectivity Score S(10) ([2]; 500 nM): 0.129; KinomeScan Selectivity Score S(35) ([2]; 500 nM): 0.197; number of individual kinase hits, S(1) ([2]; 500 nM): 15; number of individual kinase hits, S(10) ([2]; 500 nM): 51; number of individual kinase hits, S(35) ([2]; 500 nM): 78; selectivity compared to the Reference Compound [2]: substantially improved selectivities; 15 μM % Inh ([5]; CYP3A4, 0 min preincubation): 31%; 15 μM % Inh ([5]; CYP3A4, 30 min preincubation): 54%
4 | COc1cc(Nc2cc(Oc3ccc(NC(=O)Nc4cc(C(C)(C)C)cc(NS(C)(=O)=O)c4OC)c4ccccc34)ccn2)cc(C(=O)NCCN2CCOCC2)c1 [Example 27] | 0.443 µM | – | – | – | – | – | – | 4.5 µM | 0.59 µg·h/mL | 0.588 µg·h/mL | 48 min | 3.88 µg/mL | 0.1 L/kg | 0.426 L/h/kg | 0.0% | > 15 µM | 8.9 µM | 96 min | 15 µL/min/1e6 cells | no dose-related or statistically significant increases | IL-1β Anterior ([7]; Table 7b): 640 ± 263 pg/mL; IL-1β Posterior ([7]; Table 7b): 394 ± 115 pg/mL; IL-6 Anterior ([7]; Table 7b): 519 ± 196 pg/mL; IL-6 Posterior ([7]; Table 7b): 424 ± 116 pg/mL; MCP-1 Anterior ([7]; Table 7b): 282 ± 109 pg/mL; MCP-1 Posterior ([7]; Table 7b): 352 ± 109 pg/mL; cytokine levels in both the anterior and posterior segments of the eyes [7]: significantly reduced; IC50 ([8]; CYP2C9, 0 min preincubation): > 15 µM; IC50 ([8]; CYP2C9, 30 min preincubation): > 13 µM; inhibition at 15 µM ([8]; CYP2C9, 0 min preincubation): 13%; inhibition at 15 µM ([8]; CYP2C9, 30 min preincubation): 55%; inhibition at 15 µM ([5]; CYP3A4, 0 min preincubation): 19%; inhibition at 15 µM ([5]; CYP3A4, 30 min preincubation): 57%
